The NIST ThermoML archive (doi:10.1016/j.fluid.2005.08.011)

Settings: Gas, isochoric method

CCF [fluoroethane]
Settings | mass density [kg/m3]
300.16 K, 642.2 kPa | 13.92
305.16 K, 656.6 kPa | 13.917
310.14 K, 670.4 kPa | 13.913
312.16 K, 1205.6 kPa | 27.61
314.16 K, 1218.3 kPa | 27.607
315.15 K, 684.8 kPa | 13.91
316.15 K, 1231.8 kPa | 27.605
318.15 K, 1244.1 kPa | 27.602
320.14 K, 698.5 kPa | 13.906
322.16 K, 1268.7 kPa | 27.596
324.15 K, 1614.6 kPa | 37.54
325.14 K, 712.3 kPa | 13.903
326.14 K, 1634.4 kPa | 37.536
326.16 K, 1293.4 kPa | 27.591
328.15 K, 1652.5 kPa | 37.533
330.15 K, 1670.2 kPa | 37.529
330.16 K, 726.1 kPa | 13.899
330.16 K, 1317.6 kPa | 27.585
332.15 K, 2022.6 kPa | 48.84
334.16 K, 1341.9 kPa | 27.58
334.16 K, 1704.9 kPa | 37.521
334.16 K, 2047.7 kPa | 48.835
335.15 K, 739.5 kPa | 13.896
336.16 K, 2072.5 kPa | 48.83
338.12 K, 2287.8 kPa | 56.23
338.16 K, 1739 kPa | 37.514
338.17 K, 1365.6 kPa | 27.574
338.2 K, 2096.6 kPa | 48.825
339.16 K, 2108.2 kPa | 48.823
340.12 K, 2318.8 kPa | 56.224
340.15 K, 752.5 kPa | 13.892
340.15 K, 2419 kPa | 60.32
340.16 K, 2120.6 kPa | 48.821
342.12 K, 2347.8 kPa | 56.219
342.16 K, 1388.9 kPa | 27.569
342.16 K, 2144.2 kPa | 48.816
342.16 K, 2450.7 kPa | 60.314
342.17 K, 1773.5 kPa | 37.506
344.12 K, 2376.7 kPa | 56.213
344.16 K, 2167.5 kPa | 48.811
344.16 K, 2482.2 kPa | 60.308
346.12 K, 2404.5 kPa | 56.208
346.14 K, 2707.5 kPa | 68.66
346.15 K, 768.9 kPa | 13.888
346.15 K, 1412.4 kPa | 27.563
346.15 K, 2513.1 kPa | 60.302
346.16 K, 1806.7 kPa | 37.499
346.16 K, 2190.7 kPa | 48.806
347.15 K, 2725.9 kPa | 68.657
348.13 K, 2432.7 kPa | 56.202
348.15 K, 2743.8 kPa | 68.653
348.16 K, 2214 kPa | 48.801
348.16 K, 2543 kPa | 60.296
350.15 K, 1435.8 kPa | 27.558
350.15 K, 2460.5 kPa | 56.196
350.15 K, 2779.8 kPa | 68.646
350.16 K, 1840.5 kPa | 37.491
350.16 K, 2237.2 kPa | 48.796
350.16 K, 2573.4 kPa | 60.29
350.16 K, 2978.2 kPa | 78.21
351.16 K, 2999.9 kPa | 78.206
352.15 K, 2488.2 kPa | 56.191
352.15 K, 2815 kPa | 68.639
352.16 K, 2260.1 kPa | 48.791
352.16 K, 2603.3 kPa | 60.284
352.17 K, 3021.2 kPa | 78.202
353.14 K, 3180.2 kPa | 85.66
353.16 K, 3042.3 kPa | 78.198
354.15 K, 3204.5 kPa | 85.656
354.16 K, 790.7 kPa | 13.883
354.16 K, 1458.8 kPa | 27.552
354.16 K, 1873.7 kPa | 37.484
354.16 K, 2283 kPa | 48.787
354.16 K, 2515.3 kPa | 56.185
354.16 K, 2633.4 kPa | 60.278
354.16 K, 2850.7 kPa | 68.633
354.17 K, 3062.9 kPa | 78.194
355.15 K, 3227.8 kPa | 85.651
356.14 K, 2542.3 kPa | 56.18
356.15 K, 2663.1 kPa | 60.272
